According to ChEMBL document CHEMBL5126627, “Structure-Kinetic Relationship Studies for the Development of Long Residence Time LpxC Inhibitors” (J Med Chem, 2022):
≈ marks a conversion by molar mass, not a printed value. One block for each compound: values may come before it. Calls of active or inactive are those of the source. The calls are words filed in the database; no cut-off is given here.

Tests used:
Escherichia coli [1] = test: Antibacterial activity against Escherichia coli ATCC 25922; assay type: functional
[2] = Binding affinity to Pseudomonas aeruginosa LpxC assessed as inhibition constant incubated for 18 hrs by fluorescence based assay
Pseudomonas aeruginosa [3] = test: Binding affinity to Pseudomonas aeruginosa LpxC assessed as binding constant (Koff) incubated for 18 hrs by fluorescence based assay
Pseudomonas aeruginosa [4] = test: Antibacterial activity against Pseudomonas aeruginosa paEP assessed as inhibition of bacterial growth incubated for 24 hrs by microdilution method; assay type: functional
Pseudomonas aeruginosa [5] = test: Antibacterial activity against Pseudomonas aeruginosa PAO1 assessed as inhibition of bacterial growth incubated for 24 hrs by microdilution method; assay type: functional
Pseudomonas aeruginosa [6] = test: Antibacterial activity against Pseudomonas aeruginosa PAO1 assessed as post antibiotic effect by measuring time required for increase in 1 log10 CFU/ml of bacteria at 4X MIC incubated for 1 hr followed by compound washout; assay type: functional
Pseudomonas aeruginosa [7] = test: Binding affinity to Pseudomonas aeruginosa LpxC assessed as binding constant (kon) incubated for 18 hrs by fluorescence based assay
Pseudomonas aeruginosa [8] = test: Antibacterial activity against Pseudomonas aeruginosa PAO1 assessed as post antibiotic effect by measuring time required for increase in 1 log10 CFU/ml of bacteria at 16X MIC incubated for 1 hr followed by compound washout; assay type: functional
Pseudomonas aeruginosa [9] = test: Bactericidal activity against Pseudomonas aeruginosa PAO1 assessed as reduction in 3log 10 CFU/ml at 4 to 16 times MIC incubated for 16 hrs by time-kill assay; assay type: functional, organism-based
Pseudomonas aeruginosa [10] = test: Antibacterial activity against Pseudomonas aeruginosa PAO1 assessed as post antibiotic effect by measuring time required for increase in 1 log10 CFU/ml of bacteria at 8X MIC incubated for 1 hr followed by compound washout; assay type: functional
Pseudomonas aeruginosa [11] = test: Binding affinity to Pseudomonas aeruginosa LpxC assessed as residence time incubated for 18 hrs by spin column assay
Pseudomonas aeruginosa [12] = test: Binding affinity to Pseudomonas aeruginosa LpxC assessed as residence time incubated for 18 hrs by fluorescence based assay
Escherichia coli [13] = test: Antibacterial activity against Escherichia coli MB2884; assay type: functional
Pseudomonas aeruginosa [14] = test: Antibacterial activity against Pseudomonas aeruginosa ATCC 27853; assay type: functional

MIC (Escherichia coli [1]): 0.2 µg/mL (≈ 0.457 µM)
Structure (SMILES): C[C@@H](O)[C@H](NC(=O)c1ccc(C#Cc2ccc(CN3CCOCC3)cc2)cc1)C(=O)NO

Structure (SMILES): CC(CCn1ccc(-c2ccc(-c3cn(CC45CC(C4)C5)nn3)cc2)cc1=O)(C(=O)NO)S(C)(=O)=O (racemic)
Ki [2]: 2.1 pM
K (Pseudomonas aeruginosa [3]): 0.00015 s⁻¹
MIC (Pseudomonas aeruginosa [4]): 0.78 µM (≈ 0.399 µg/mL)
MIC (Pseudomonas aeruginosa [5]): 12.5 µM (≈ 6.4 µg/mL)
Time (Pseudomonas aeruginosa [6]): 4 h
K (Pseudomonas aeruginosa [7]): 8.52e+07 M⁻¹ s⁻¹

Structure (SMILES): CC(CCn1ccc(-c2ccccc2)cc1=O)(C(=O)NO)S(C)(=O)=O (racemic)
Time (Pseudomonas aeruginosa [8]): 1.3 h
Activity (Pseudomonas aeruginosa [9]): Active
MIC (Pseudomonas aeruginosa [4]): 0.2 µM (≈ 0.0729 µg/mL)
MIC (Pseudomonas aeruginosa [5]): 3.12 µM (≈ 1.14 µg/mL)
Time (Pseudomonas aeruginosa [6]): 0.7 h
Time (Pseudomonas aeruginosa [10]): 1.1 h

Structure (SMILES): CC1(Cn2cc(-c3ccc(-c4ccn(CCC(C)(C(=O)NO)S(C)(=O)=O)c(=O)c4)cc3)nn2)COC1 (racemic)
MIC (Pseudomonas aeruginosa [4]): 1.56 µM (≈ 0.804 µg/mL)
MIC (Pseudomonas aeruginosa [5]): 25 µM (≈ 12.9 µg/mL)

Structure (SMILES): C=CCn1cc(-c2ccc(-c3ccn(CCC(C)(C(=O)NO)S(C)(=O)=O)c(=O)c3)cc2)nn1 (racemic)
TIME (Pseudomonas aeruginosa [11]): 146 h
Ki [2]: 6.1 pM
K (Pseudomonas aeruginosa [3]): 0.00022 s⁻¹
MIC (Pseudomonas aeruginosa [4]): 0.78 µM (≈ 0.368 µg/mL)
MIC (Pseudomonas aeruginosa [5]): 12.5 µM (≈ 5.89 µg/mL)
TIME (Pseudomonas aeruginosa [12]): 1.38 h
K (Pseudomonas aeruginosa [7]): 5.2e+07 M⁻¹ s⁻¹

Structure (SMILES): C[C@@H](O)C(NC(=O)c1ccc(-c2cn(Cc3ccccc3)nn2)cc1)C(=O)NO (mixture of isomers)
MIC (Pseudomonas aeruginosa [4]): > 12.5 µM
MIC (Pseudomonas aeruginosa [5]): > 50 µM

MIC (Escherichia coli [13]): 1 µg/mL (≈ 3.24 µM)
Structure (SMILES): CCCc1cc(C2=N[C@@H](C(=O)NO)CO2)cc(OC)c1OC

Structure (SMILES): COc1ccc(-c2ccn(CCC(C)(C(=O)NO)S(C)(=O)=O)c(=O)c2)cc1 (racemic)
MIC (Pseudomonas aeruginosa [4]): 0.8 µM (≈ 0.316 µg/mL)
MIC (Pseudomonas aeruginosa [5]): 3.12 µM (≈ 1.23 µg/mL)

Structure (SMILES): CC(CCn1ccc(-c2ccc(-c3cn(Cc4ccncc4)nn3)cc2)cc1=O)(C(=O)NO)S(C)(=O)=O (racemic)
MIC (Pseudomonas aeruginosa [4]): 6.25 µM (≈ 3.27 µg/mL)
MIC (Pseudomonas aeruginosa [5]): 50 µM (≈ 26.1 µg/mL)

Structure (SMILES): COc1ccc(-c2ccc(CNC3(C(=O)NO)CCS(=O)(=O)CC3)cc2)c(F)c1
TIME (Pseudomonas aeruginosa [11]): 79 h
Time (Pseudomonas aeruginosa [8]): 1.7 h
Ki [2]: 37.9 pM
K (Pseudomonas aeruginosa [3]): 0.00053 s⁻¹
Activity (Pseudomonas aeruginosa [9]): Active
MIC (Pseudomonas aeruginosa [4]): 0.03 µM (≈ 0.0127 µg/mL)
MIC (Pseudomonas aeruginosa [5]): 0.4 µM (≈ 0.169 µg/mL)
TIME (Pseudomonas aeruginosa [12]): 0.533 h
Time (Pseudomonas aeruginosa [6]): 1 h
K (Pseudomonas aeruginosa [7]): 1.66e+07 M⁻¹ s⁻¹
Time (Pseudomonas aeruginosa [10]): 1.3 h

Structure (SMILES): CC(CCn1ccc(-c2ccc(-n3nccn3)cc2)cc1=O)(C(=O)NO)S(C)(=O)=O (racemic)
Time (Pseudomonas aeruginosa [8]): 3.4 h
Activity (Pseudomonas aeruginosa [9]): Active
MIC (Pseudomonas aeruginosa [4]): 0.4 µM (≈ 0.173 µg/mL)
MIC (Pseudomonas aeruginosa [5]): 1.56 µM (≈ 0.673 µg/mL)
Time (Pseudomonas aeruginosa [6]): 1.4 h
Time (Pseudomonas aeruginosa [10]): 2.2 h

Structure (SMILES): CC(CCn1ccc(-c2ccc(-c3cn(CC4CCCCC4)nn3)cc2)cc1=O)(C(=O)NO)S(C)(=O)=O (racemic)
Ki [2]: 5.5 pM
K (Pseudomonas aeruginosa [3]): 0.00017 s⁻¹
MIC (Pseudomonas aeruginosa [4]): 3.12 µM (≈ 1.65 µg/mL)
MIC (Pseudomonas aeruginosa [5]): 50 µM (≈ 26.4 µg/mL)
TIME (Pseudomonas aeruginosa [12]): 1.67 h
K (Pseudomonas aeruginosa [7]): 3.1e+07 M⁻¹ s⁻¹

Structure (SMILES): CC(CCn1ccc(-c2ccc(-c3cn(Cc4ccc(F)cc4)nn3)cc2)cc1=O)(C(=O)NO)S(C)(=O)=O (racemic)
TIME (Pseudomonas aeruginosa [11]): 106 h
Time (Pseudomonas aeruginosa [8]): 3.5 h
Ki [2]: 8 pM
K (Pseudomonas aeruginosa [3]): 0.00025 s⁻¹
Activity (Pseudomonas aeruginosa [9]): Active
MIC (Pseudomonas aeruginosa [4]): 0.05 µM (≈ 0.027 µg/mL)
MIC (Pseudomonas aeruginosa [5]): 1.56 µM (≈ 0.842 µg/mL)
TIME (Pseudomonas aeruginosa [12]): 1.14 h
Time (Pseudomonas aeruginosa [6]): 1.7 h
K (Pseudomonas aeruginosa [7]): 3.38e+07 M⁻¹ s⁻¹
Time (Pseudomonas aeruginosa [10]): 2.5 h

Structure (SMILES): CC(CCn1ccc(-c2ccc(NC(=O)Cc3ccccc3)cc2)cc1=O)(C(=O)NO)S(C)(=O)=O (racemic)
Ki [2]: 95.4 pM
K (Pseudomonas aeruginosa [3]): 0.0043 s⁻¹
MIC (Pseudomonas aeruginosa [4]): 3.12 µM (≈ 1.55 µg/mL)
MIC (Pseudomonas aeruginosa [5]): 50 µM (≈ 24.9 µg/mL)
TIME (Pseudomonas aeruginosa [12]): 0.0667 h
K (Pseudomonas aeruginosa [7]): 4.48e+07 M⁻¹ s⁻¹

Structure (SMILES): CC(CCn1ccc(-c2ccc(-c3cn(Cc4ccccn4)nn3)cc2)cc1=O)(C(=O)NO)S(C)(=O)=O (racemic)
Ki [2]: 5.5 pM
MIC (Pseudomonas aeruginosa [4]): 0.2 µM (≈ 0.105 µg/mL)
MIC (Pseudomonas aeruginosa [5]): 6.25 µM (≈ 3.27 µg/mL)
K (Pseudomonas aeruginosa [7]): 3.72e+07 M⁻¹ s⁻¹

Structure (SMILES): COc1ccc(-c2ccn(CC[C@](C)(C(=O)NO)S(C)(=O)=O)c(=O)c2)c(F)c1
MIC (Pseudomonas aeruginosa [5]): 0.625 µM (≈ 0.258 µg/mL)

Structure (SMILES): CC(CCn1ccc(-c2ccc(-c3cnnn3Cc3ccccc3)cc2)cc1=O)(C(=O)NO)S(C)(=O)=O (racemic)
Ki [2]: 67.7 pM
K (Pseudomonas aeruginosa [3]): 0.00187 s⁻¹
MIC (Pseudomonas aeruginosa [4]): 12.5 µM (≈ 6.52 µg/mL)
MIC (Pseudomonas aeruginosa [5]): 50 µM (≈ 26.1 µg/mL)
TIME (Pseudomonas aeruginosa [12]): 0.15 h
K (Pseudomonas aeruginosa [7]): 2.78e+07 M⁻¹ s⁻¹

Structure (SMILES): COc1ccc(-c2ccc(CNC3(C(=O)NO)CCS(=O)(=O)CC3)cc2F)cc1
Ki [2]: 14.4 pM
K (Pseudomonas aeruginosa [3]): 0.00049 s⁻¹
MIC (Pseudomonas aeruginosa [4]): 0.1 µM (≈ 0.0422 µg/mL)
MIC (Pseudomonas aeruginosa [5]): 0.8 µM (≈ 0.338 µg/mL)
TIME (Pseudomonas aeruginosa [12]): 0.572 h
K (Pseudomonas aeruginosa [7]): 3.45e+07 M⁻¹ s⁻¹

MIC (Escherichia coli [1]): 1 µg/mL (≈ 2.38 µM)
MIC (Pseudomonas aeruginosa [14]): > 0.25 µg/mL
Structure (SMILES): O=C(NO)[C@H](Cc1ccc2ccccc2c1)NS(=O)(=O)c1ccc2ccccc2c1

Structure (SMILES): CC(CCn1ccc(-c2ccc(-c3cn(Cc4ccc([N+](=O)[O-])cc4)nn3)cc2)cc1=O)(C(=O)NO)S(C)(=O)=O (racemic)
Ki [2]: 7 pM
K (Pseudomonas aeruginosa [3]): 0.00021 s⁻¹
MIC (Pseudomonas aeruginosa [4]): 0.1 µM (≈ 0.0567 µg/mL)
MIC (Pseudomonas aeruginosa [5]): 6.25 µM (≈ 3.54 µg/mL)
TIME (Pseudomonas aeruginosa [12]): 1.31 h
K (Pseudomonas aeruginosa [7]): 3.07e+07 M⁻¹ s⁻¹

Structure (SMILES): CC(CCn1ccc(-c2ccc(-c3cn(Cc4ccccc4)nn3)cc2)cc1=O)(C(=O)NO)S(C)(=O)=O (racemic)
Ki [2]: 10.6 pM
K (Pseudomonas aeruginosa [3]): 0.00032 s⁻¹
MIC (Pseudomonas aeruginosa [4]): 0.78 µM (≈ 0.407 µg/mL)
MIC (Pseudomonas aeruginosa [5]): 12.5 µM (≈ 6.52 µg/mL)
TIME (Pseudomonas aeruginosa [12]): 0.955 h
K (Pseudomonas aeruginosa [7]): 4.38e+07 M⁻¹ s⁻¹

Structure (SMILES): CC(CCn1ccc(-c2ccc(C(=O)NCc3ccccc3)cc2)cc1=O)(C(=O)NO)S(C)(=O)=O (racemic)
Ki [2]: 274 pM
K (Pseudomonas aeruginosa [3]): 0.0021 s⁻¹
MIC (Pseudomonas aeruginosa [4]): 3.12 µM (≈ 1.55 µg/mL)
MIC (Pseudomonas aeruginosa [5]): 25 µM (≈ 12.4 µg/mL)
TIME (Pseudomonas aeruginosa [12]): 0.133 h
K (Pseudomonas aeruginosa [7]): 2.38e+07 M⁻¹ s⁻¹

Ki [2]: 3.2 pM
K (Pseudomonas aeruginosa [3]): 0.00014 s⁻¹
TIME (Pseudomonas aeruginosa [12]): 2.02 h
K (Pseudomonas aeruginosa [7]): 4.28e+07 M⁻¹ s⁻¹
Structure (SMILES): CC(CCn1ccc(-c2ccc(-c3cn(Cc4cccnc4)nn3)cc2)cc1=O)(C(=O)NO)S(C)(=O)=O (racemic)

Structure (SMILES): CC(CCn1ccc(-c2ccc(-c3cn(Cc4ccncn4)nn3)cc2)cc1=O)(C(=O)NO)S(C)(=O)=O (racemic)
Ki [2]: 4.2 pM
K (Pseudomonas aeruginosa [3]): 0.00017 s⁻¹
MIC (Pseudomonas aeruginosa [4]): 3.12 µM (≈ 1.64 µg/mL)
MIC (Pseudomonas aeruginosa [5]): 50 µM (≈ 26.2 µg/mL)
TIME (Pseudomonas aeruginosa [12]): 1.71 h
K (Pseudomonas aeruginosa [7]): 4.43e+07 M⁻¹ s⁻¹

Structure (SMILES): CC(CCn1ccc(-c2ccc(-c3cn(CC4CC4)nn3)cc2)cc1=O)(C(=O)NO)S(C)(=O)=O (racemic)
TIME (Pseudomonas aeruginosa [11]): 191 h
Time (Pseudomonas aeruginosa [8]): 3.1 h
Ki [2]: 10.2 pM
K (Pseudomonas aeruginosa [3]): 0.00025 s⁻¹
Activity (Pseudomonas aeruginosa [9]): Active
MIC (Pseudomonas aeruginosa [4]): 0.4 µM (≈ 0.194 µg/mL)
MIC (Pseudomonas aeruginosa [5]): 3.12 µM (≈ 1.52 µg/mL)
TIME (Pseudomonas aeruginosa [12]): 1.11 h
Time (Pseudomonas aeruginosa [6]): 1.6 h
K (Pseudomonas aeruginosa [7]): 2.64e+07 M⁻¹ s⁻¹
Time (Pseudomonas aeruginosa [10]): 2.2 h

MIC (Escherichia coli [1]): 0.125 µg/mL (≈ 0.338 µM)
MIC (Pseudomonas aeruginosa [14]): 0.25 µg/mL (≈ 0.677 µM)
Structure (SMILES): CC(C)(N)[C@H](NC(=O)c1ccc(C#CC#C[C@@H]2C[C@H]2CO)cc1)C(=O)NO [ACHN-975]

Structure (SMILES): CC(CCn1ccc(-c2ccc(CN3CCOCC3)cc2)cc1=O)(C(=O)NO)S(C)(=O)=O (racemic)
Ki [2]: 96.8 pM
K (Pseudomonas aeruginosa [3]): 0.0035 s⁻¹
MIC (Pseudomonas aeruginosa [5]): 50 µM (≈ 23.2 µg/mL)
TIME (Pseudomonas aeruginosa [12]): 0.0783 h
K (Pseudomonas aeruginosa [7]): 3.64e+07 M⁻¹ s⁻¹

Structure (SMILES): CC(CCn1ccc(-c2ccc(-c3cn(CCO)nn3)cc2)cc1=O)(C(=O)NO)S(C)(=O)=O (racemic)
Ki [2]: 3.7 pM
K (Pseudomonas aeruginosa [3]): 0.00018 s⁻¹
MIC (Pseudomonas aeruginosa [4]): > 12.5 µM
MIC (Pseudomonas aeruginosa [5]): > 50 µM
K (Pseudomonas aeruginosa [7]): 5.96e+07 M⁻¹ s⁻¹
